{
  "source": "patent US20210171948A1",
  "about": "“COMPOSITIONS AND METHODS FOR TARGETING GLYPICAN-2 IN THE TREATMENT OF CANCER” (Shepherd Therapeutics, Inc., priority 2019, published 2021)",
  "key": {"[1]": {"test_system": "GPC2 mRNA", "assay": "GPC2 mRNA knockdown in neuroblastoma cell lines, representative data from a separate experiment (Tables 10-14)", "type": "cell-based, human", "parameters": "concentration or dose not given beside the values"}, "[2]": {"test_system": "CHLA-90 cells", "assay": "Doxorubicin IC50 in siRNA-transfected cells, Cell Titer Glo viability (Example 8)", "type": "cell-based", "experimental": "(§1) GPC2 mRNA expression was reduced and changes in cell viability were assessed in multiple neuroblastoma cell lines. Cells were transfected with either a control siRNA or with GPC-2 siRNA sequences 3, 5 or 7 from Table 7 using the RNAiMAX Lipofectamine kit (Invitrogen, Carlsbad, Calif.) as previously described in 96 wells for viability assays. Doxorubicin was added at increasing concentrations (0-5 uM) to transfected cells at 24 hours post transfection. Following a 72 hour incubation period, viability measurements were made using Cell Titer Glo."}, "[3]": {"test_system": "CHP212 cells", "assay": "Doxorubicin IC50 in siRNA-transfected cells, Cell Titer Glo viability (Example 8)", "type": "cell-based", "experimental": "as §1"}, "[4]": {"test_system": "SK-N-BE2 cells", "assay": "Doxorubicin IC50 in siRNA-transfected cells, Cell Titer Glo viability (Example 8)", "type": "cell-based", "experimental": "as §1"}, "[5]": {"test_system": "SH-SY5Y cells", "assay": "Doxorubicin IC50 in siRNA-transfected cells, Cell Titer Glo viability (Example 8)", "type": "cell-based", "experimental": "as §1"}, "[6]": {"test_system": "GPC2 mRNA", "assay": "GPC2 mRNA knockdown in neuroblastoma cell lines (Example 4)", "type": "cell-based, human", "experimental": "GPC2 mRNA knockdown was assessed in multiple neuroblastoma cell lines. Cells were transfected with either a scrambled control siRNA, with GPC2 siRNA sequences 3 or 5 from Table 7, or with siRNA sequences generated by Dharmacon (sequences 12-15 from Table 7) using the RNAiMAX Lipofectamine kit (Invitrogen, Carlsbad, Calif.) as previously described. Following a 96 hour incubation period, total RNA samples were collected to compare knockdown efficiency and viability was measured in parallel plated cells.\nThe extent of GPC2 mRNA reduction was assessed with additional GPC2 siRNA sequences in the CHP212 neuroblastoma cell line. Cells were transfected with either a scrambled control siRNA or with GPC2 siRNA sequences 3 or 5, or with siRNA sequences 6-11 (Sigma) using the RNAiMAX Lipofectamine kit (Invitrogen, Carlsbad, Calif.) as previously described. Following a 96 hour incubation period, total RNA samples were collected and viability was measured in parallel plated cells.\nThe extent of GPC2 mRNA reduction (knockdown) and corresponding protein level expression changes were assessed in three neuroblastoma cell lines following siRNA knockdown of GPC2. The CHP212 neuroblastoma cell line (FIG. 5A and FIG. 5D), the SH-SY5Y neuroblastoma cell line (FIG. 5B and FIG. 5E) and the CHLA90 neuroblastoma cell line (FIG. 5C and FIG. 5F) were transfected with GPC2 siRNA sequences 5 and 7 from Table 7 and a scrambled control siRNA using the RNAiMAX Lipofectamine kit (Invitrogen, Carlsbad, Calif.) as previously described. Following a 24, 48, or 72 hour incubation period, cells were washed and total RNA was isolated for measuring GPC2 mRNA expression. For protein analysis, cells were fixed, immunostained using an antibody against GPC2 protein, protein expression was measured via flow cytometry. As shown, GPC2 mRNA knockdown was observed beginning at the 24 hr time point and lasted for at least 72 hours. GPC2 protein expression started to decrease at the 48 hr time point."}, "[7]": {"test_system": "CHLA-90 cells", "assay": "Etoposide IC50 in siRNA-transfected cells, Cell Titer Glo 2.0 viability (Example 9)", "type": "cell-based", "experimental": "as §1, with “GPC2” for “GPC-2”, “Etoposide” for “Doxorubicin”, “(0-15” for “(0-5”, “measurement” for “measurements”, “Glo 2.0.” for “Glo.”"}, "[8]": {"test_system": "CHP212 cells", "assay": "Etoposide IC50 in siRNA-transfected cells, Cell Titer Glo 2.0 viability (Example 9)", "type": "cell-based", "settings": "CHP212 cells transfected with the labelled siRNA; etoposide added 24 hours post transfection, 72 hour incubation", "experimental": "as §1, with “GPC2” for “GPC-2”, “Etoposide” for “Doxorubicin”, “(0-15” for “(0-5”, “measurement” for “measurements”, “Glo 2.0.” for “Glo.”"}, "[9]": {"test_system": "SK-N-BE2 cells", "assay": "Etoposide IC50 in siRNA-transfected cells, Cell Titer Glo 2.0 viability (Example 9)", "type": "cell-based", "experimental": "as §1, with “GPC2” for “GPC-2”, “Etoposide” for “Doxorubicin”, “(0-15” for “(0-5”, “measurement” for “measurements”, “Glo 2.0.” for “Glo.”"}, "[10]": {"test_system": "SH-SY5Y cells", "assay": "Etoposide IC50 in siRNA-transfected cells, Cell Titer Glo 2.0 viability (Example 9)", "type": "cell-based", "experimental": "as §1, with “GPC2” for “GPC-2”, “Etoposide” for “Doxorubicin”, “(0-15” for “(0-5”, “measurement” for “measurements”, “Glo 2.0.” for “Glo.”"}, "[11]": {"test_system": "CHLA-90 cells", "assay": "Cyclophosphamide IC50 in siRNA-transfected cells, Cell Titer Glo 2.0 viability (Example 7)", "type": "cell-based", "experimental": "as §1, with “reduced with the indicated siRNAs” for “reduced”, “GPC2” for “GPC-2”, “Cyclophosphamide” for “Doxorubicin”, “(0-20” for “(0-5”, “hr” for “hours”, “Glo 2.0.” for “Glo.”"}, "[12]": {"test_system": "CHP212 cells", "assay": "Cyclophosphamide IC50 in siRNA-transfected cells, Cell Titer Glo 2.0 viability (Example 7)", "type": "cell-based", "experimental": "as §1, with “reduced with the indicated siRNAs” for “reduced”, “GPC2” for “GPC-2”, “Cyclophosphamide” for “Doxorubicin”, “(0-20” for “(0-5”, “hr” for “hours”, “Glo 2.0.” for “Glo.”"}, "[13]": {"test_system": "SK-N-BE2 cells", "assay": "Cyclophosphamide IC50 in siRNA-transfected cells, Cell Titer Glo 2.0 viability (Example 7)", "type": "cell-based", "experimental": "as §1, with “reduced with the indicated siRNAs” for “reduced”, “GPC2” for “GPC-2”, “Cyclophosphamide” for “Doxorubicin”, “(0-20” for “(0-5”, “hr” for “hours”, “Glo 2.0.” for “Glo.”"}, "[14]": {"test_system": "SH-SY5Y cells", "assay": "Cyclophosphamide IC50 in siRNA-transfected cells, Cell Titer Glo 2.0 viability (Example 7)", "type": "cell-based", "experimental": "as §1, with “reduced with the indicated siRNAs” for “reduced”, “GPC2” for “GPC-2”, “Cyclophosphamide” for “Doxorubicin”, “(0-20” for “(0-5”, “hr” for “hours”, “Glo 2.0.” for “Glo.”"}},
  "note": "pIC50: −log10 of the molar value. Strand notation (5' to 3'): a small letter for the sugar, then the base; units joined by * are phosphorothioate-linked, units joined directly phosphodiester-linked; [ ] holds rarer units or linkages, { } end groups; capitals alone tell only the bases. d = 2'-deoxy (DNA); r = 2'-OH (RNA)",
  "data": [
    {"substance": "GPC2 siRNA 7: siRNA duplex: sense CUCCUUUCUGGUUCACACA[dT][dT] (SEQ ID NO: 215), anti-sense UGUGUGAACCAGAAAGGAG[dT][dT] (SEQ ID NO: 216) (sense rCrUrCrCrUrUrUrCrUrGrGrUrUrCrArCrArCrAdTdT; antisense rUrGrUrGrUrGrArArCrCrArGrArArArGrGrArGdTdT; listed as Homo sapiens)", "values": [
      {"measurement": "% KD; percent GPC2 mRNA reduction (knockdown)", "setting": "[1]; CHLA-90, compared to scrambled siRNA control", "result": 65, "unit": "%"},
      {"measurement": "% KD; percent GPC2 mRNA reduction (knockdown)", "setting": "[1]; CHLA-136, compared to scrambled siRNA control", "result": 30, "unit": "%"},
      {"measurement": "% KD; percent GPC2 mRNA reduction (knockdown)", "setting": "[1]; CHLA-172, compared to scrambled siRNA control", "result": 20, "unit": "%"},
      {"measurement": "% KD; percent GPC2 mRNA reduction (knockdown)", "setting": "[1]; CHP212, compared to scrambled siRNA control", "result": 70, "unit": "%"},
      {"measurement": "% KD; percent GPC2 mRNA reduction (knockdown)", "setting": "[1]; KELLY, compared to scrambled siRNA control", "result": 73, "unit": "%"},
      {"measurement": "% KD; percent GPC2 mRNA reduction (knockdown)", "setting": "[1]; SH-SY5Y, compared to scrambled siRNA control", "result": 70, "unit": "%"},
      {"measurement": "% KD; percent GPC2 mRNA reduction (knockdown)", "setting": "[1]; SK-N-BE2, compared to scrambled siRNA control", "result": 69, "unit": "%"},
      {"measurement": "% KD; percent GPC2 mRNA reduction (knockdown)", "setting": "[1]; SKNAS, compared to scrambled siRNA control", "result": 64, "unit": "%"},
      {"measurement": "Data Summary: effect of knockdown on sensitivity to doxorubicin", "setting": "[2]; CHLA-90", "result": "increases sensitivity to"},
      {"measurement": "pIC50", "setting": "[2]; CHLA-90 cells transfected with the labelled siRNA, doxorubicin added 24 hours post transfection, 72 hour incubation", "result": 6.89},
      {"measurement": "Data Summary: effect of knockdown on sensitivity to doxorubicin", "setting": "[3]; CHP212", "result": "does not increase sensitivity"},
      {"measurement": "pIC50", "setting": "[3]; CHP212 cells transfected with the labelled siRNA, doxorubicin added 24 hours post transfection, 72 hour incubation", "result": 7.70},
      {"measurement": "Data Summary: effect of knockdown on sensitivity to doxorubicin", "setting": "[4]; SK-N-BE2", "result": "increases sensitivity to"},
      {"measurement": "pIC50", "setting": "[4]; SK-N-BE2 cells transfected with the labelled siRNA, doxorubicin added 24 hours post transfection, 72 hour incubation", "result": 6.70},
      {"measurement": "Data Summary: effect of knockdown on sensitivity to doxorubicin", "setting": "[5]; SH-SY5Y", "result": "KD with sequence 7 increases"},
      {"measurement": "pIC50", "setting": "[5]; SH-SY5Y cells transfected with the labelled siRNA, doxorubicin added 24 hours post transfection, 72 hour incubation", "result": 7.52},
      {"measurement": "Time for which reduced GPC2 mRNA expression was sustained", "setting": "[6]; CHLA90 neuroblastoma cells (FIG. 5C)", "result": 72, "unit": "h"},
      {"measurement": "Time point at which GPC2 mRNA knockdown was first observed", "setting": "[6]; CHP212, SH-SY5Y and CHLA90 neuroblastoma cell lines", "result": 24, "unit": "h"},
      {"measurement": "Degree of GPC2 knockdown among sequences 3, 5, 6-11", "setting": "[6]; CHP212 neuroblastoma cell line, 96 hour incubation (FIG. 4A)", "result": "greater"},
      {"measurement": "Time for which reduced GPC2 mRNA expression was sustained", "setting": "[6]; CHP212 neuroblastoma cells (FIG. 5A)", "result": 72, "unit": "h"},
      {"measurement": "Time for which reduced GPC2 mRNA expression was sustained", "setting": "[6]; SH-SY5Y neuroblastoma cells (FIG. 5B)", "result": 72, "unit": "h"},
      {"measurement": "Data Summary: effect of knockdown on sensitivity to etoposide", "setting": "[7]; CHLA-90", "result": "increases sensitivity to etoposide"},
      {"measurement": "pIC50", "setting": "[7]; CHLA-90 cells transfected with the labelled siRNA, etoposide added 24 hours post transfection, 72 hour incubation", "result": 6.89},
      {"measurement": "pIC50", "setting": "[8]", "result": 7.70},
      {"measurement": "Data Summary: effect of knockdown on sensitivity to etoposide", "setting": "[9]; SK-N-BE2", "result": "7 increases sensitivity to etoposide"},
      {"measurement": "pIC50", "setting": "[9]; SK-N-BE2 cells transfected with the labelled siRNA, etoposide added 24 hours post transfection, 72 hour incubation", "result": 6.70},
      {"measurement": "Data Summary: effect of knockdown on sensitivity to etoposide", "setting": "[10]; SH-SY5Y", "result": "7 increases sensitivity to etoposide"},
      {"measurement": "pIC50", "setting": "[10]; SH-SY5Y cells transfected with the labelled siRNA, etoposide added 24 hours post transfection, 72 hour incubation", "result": 7.52},
      {"measurement": "Data Summary: effect of knockdown on sensitivity to cyclophosphamide", "setting": "[11]; CHLA-90", "result": "increases sensitivity to"},
      {"measurement": "pIC50", "setting": "[11]; CHLA-90 cells transfected with the labelled siRNA, cyclophosphamide added 24 hr post transfection, 72 hour incubation", "result": 5.00},
      {"measurement": "Data Summary: effect of knockdown on sensitivity to cyclophosphamide", "setting": "[12]; CHP212", "result": "increases sensitivity to"},
      {"measurement": "pIC50", "setting": "[12]; CHP212 cells transfected with the labelled siRNA, cyclophosphamide added 24 hr post transfection, 72 hour incubation", "result": 5.92},
      {"measurement": "Data Summary: effect of knockdown on sensitivity to cyclophosphamide", "setting": "[13]; SK-N-BE2", "result": "increases sensitivity to"},
      {"measurement": "pIC50", "setting": "[13]; SK-N-BE2 cells transfected with the labelled siRNA, cyclophosphamide added 24 hr post transfection, 72 hour incubation", "result": 6.39},
      {"measurement": "Data Summary: effect of knockdown on sensitivity to cyclophosphamide", "setting": "[14]; SH-SY5Y", "result": "increases sensitivity to"},
      {"measurement": "pIC50", "setting": "[14]; SH-SY5Y cells transfected with the labelled siRNA, cyclophosphamide added 24 hr post transfection, 72 hour incubation", "result": 6.03}
    ]}
  ]
}
